In patent US20050180982A1, “Cadherin-11 expression, an assay and treatment for cellular invasiveness” (THE UNIVERSITY OF BRITISH COLUMBIA, priority 1998, published 2005):

Assays:
[1] = system: cad-11 mRNA in endometrial stromal cells; test: Northern blot of cad-11 mRNA in cultured endometrial stromal cells treated with gonadal steroids; format: cell-based, human; conditions: P4 1 mM, E2 30 nM
Protocol: (§1) Endometrial tissue biopsies (n=6) were obtained from women of reproductive age during the mid-secretory phase of the menstrual cycle. All patients had normal menstrual cycles and had not received hormones for at least three months prior to the collection of tissue. The stage of the menstrual cycle was determined by the last menstrual period and confirmed by histological evaluation.
The endometrial stromal cells were separated from the glandular epithelium by enzymatic digestion and mechanical dissociation. […] The purity of the cell cultures was determined by immunocytochemical staining for vimentin, cytokeratin, muscle actin, and […]. […]
The Northern blots were hybridized with radiolabelled cDNA probes specific for human cad-11 according to the methods of MacCalman et al. (1992) Developmental Dynamics 195:127-132. […] The absorbance values obtained for cad-11 mRNA transcripts were normalized relative to the 18S rRNA absorbance value.
(§2) The results are presented as the mean relative absorbance (+SE) for three independent experiments. Statistical differences between time points and treatments were assessed by the analysis of variance (ANOVA). […] Significant differences between the means were determined using the least significant test.

[2] = system: cad-11 protein in endometrial stromal cells; test: Western blot of cad-11 protein in cultured endometrial stromal cells treated with gonadal steroids; format: cell-based, human
Protocol: as §1
The endometrial stromal cells were separated from the glandular epithelium by enzymatic digestion and mechanical dissociation. The endometrial biopsy specimens were minced and subjected to 0.1% colagenase (type 1A. Sigma Chemical Co., St. Louis. MO) and 0.1% hyaluronidase (type I-S, Sigma Chemical Co.) digestion in a shaking water bath at 37° C. for 1 hour. The cell digest was then passed through a nylon sieve (38 m). The isolated glands were retained on the sieve and the eluate containing the stromal cells collected in a 50 ml tube. […] The purity of the cell cultures was determined by immunocytochemical staining for vimentin, cytokeratin, muscle actin, and […]. […]
as §2

cad-11 = test: Cad-11 antisense/sense oligonucleotide studies, second oligonucleotide pair; format: cell-based, human; conditions: no individual experiments specified
Protocol: Antisense oligonucleotide sequences (18 mers, 50% AT/GC) were selected from the full-length cad-11 cDNA sequence using the MacVector™ program. DNA sequences located near the 5′ end of the cad-11 cDNA were selected and compared to the human sequence databases of GenBank and EMBL bank. […] Sense oligonucleotides, OB-3 and OB-4, were prepared as controls. Phosphothiorate labelled oligonucleotides were prepared at the Biotechnology Lab. of The University of British Columbia. The same results were obtained using OB-1 and OB-3, as with OB-2 and OB-4.

villous cytotrophoblasts = test: Reversibility of oligonucleotide effects on villous cytotrophoblasts; format: cell-based, human; conditions: 48 hours with oligonucleotide, washed, further 24 hours
Protocol: To determine whether the effects of OB-1 on villous cytotrophoblasts are reversible, cells were cultured in the presence of OB-1 or OB-3 for 48 hours. The cells were washed thoroughly with PBS. The culture medium was then replaced and the cells cultured for a further 24 hours. […] The majority of cells (90%) detached from the culture and dish. Cad-11 was not detected in the remaining cells.

[3] = system: Villous cytotrophoblasts isolated from the human term placenta, cultured 72 hours
[4] = system: N-cadherin mRNA in human granulosa cells; test: Specificity of antisense in granulosa cells, Northern blot, N-cadherin probe; format: cell-based; conditions: 0.5-5 M, 24 hours
Protocol: (§3) In order to determine the specificity of OB-1, the effect of OB-1 was determined in human granulosa cells. Human granulosa cells express three cadherin subtypes (cad-11, cad-6 and N-cad) as they undergo spontaneous luteinization in culture. Granulosa cells which had been cultured for 36 hours were treated with OB-1 or OB-3 (0.5-5 M). The cultures were maintained for a further 24 hours, after which the cells were harvested for Northern analysis. Northern blots were probed with cad-11, cad-6, or N-cadherin (neural cadherin) cDNA probes as previously described. OB-1 caused a reduction in the levels of the cad-11 RNA transcript in a dose-dependent manner but had no effect on cad-6 or N-cadherin mRNA levels. In contrast.

[5] = system: cytotrophoblasts isolated from term placenta; test: Morphology of cytotrophoblasts by light microscopy and indirect immunofluorescence; format: cell-based, human; conditions: indirect immunofluorescence for E-cadherin
Text: The effect of OB-1 and OB-3 on the morphology of the cytotrophoblast was examined by light microscopy and indirect immunofluoresence.

[6] = system: PC3 cells treated with TGF-1; test: Effect of oligonucleotides on PC3 cells treated with TGF-1; conditions: 0.5-5 M for 24 hours
[7] = system: cad-6 mRNA in human granulosa cells; test: Specificity of antisense in granulosa cells, Northern blot, cad-6 probe; format: cell-based; conditions: 0.5-5 M, 24 hours
Protocol: as §3

[8] = system: Cos-1 cells transfected with the steroid acute regulatory protein; test: Non-specific effects on cell number and steroidogenic capacity in Cos-1 cells; format: cell-based; parameters: cell number (Coulter cell counter): dose or concentration left out as unconfirmed
Protocol: Non-specific effects of the antisense oligonucleotides on cell viability and the steroidogenic capacity of cells was determined using Cos-1 cells transfected with the steroid acute regulatory protein (from Dr. J. F. Strauss, III. University of Pennsylvania, Philadelphia, Pa.). […] The COS-1 cells were cultured in the presence or absence of varying concentrations of OB-1 OR OB-3 (0.5-5 M) for 48 hours. The cell number present in each culture was determined using a Coulter™ cell counter and P4 concentrations present in the culture medium using a Progesterone RIA™ kit. As determined by these parameters.

[9] = system: cad-11 RNA transcript in human granulosa cells; test: Specificity of antisense in granulosa cells, Northern blot, cad-11 probe; format: cell-based; parameters: dose or concentration left out as unconfirmed; conditions: 24 hours, dose-dependent manner for OB-1
Protocol: as §3

human decidual cells = test: Effect on primary cultures of human decidual cells; conditions: 0.5-5 M for 24 hours

Compound: CC(=O)[C@H]1CC[C@H]2[C@@H]3CCC4=CC(=O)CC[C@]4(C)[C@H]3CC[C@]12C [P4, progesterone]
- time in culture at which maximum cad-11 mRNA levels were observed [1]: 12 days
- stromal cad-11 mRNA levels ([1]; alone or together, increase seen after 2 days of culture, studied 0-12 days): significant increase
- time in culture at which maximum cad-11 expression levels were detected [2]: 12 days
- cad-11 protein expression ([2]; P4, E2 30 nM, alone or together, increase seen at 2 days of culture): increase

Compound: OB-2: cad-11 antisense oligonucleotide, 18 mer: CAC GAA GAA CTG GTT CCA (SEQ ID NO:2) (antisense CACGAAGAACTGGTTCCA; listed as DNA, chemistry not given here; listed as Homo sapiens)
- results compared with the pair OB-1 (antisense) and OB-3 (sense) (cad-11): same results

Compound: OB-3: sense oligonucleotide prepared as control: ATG ACA AAT GTT CGG CGG (SEQ ID NO:3) (sense ATGACAAATGTTCGGCGG; chemistry not given here) [reference compound]
- structures observed after wash-out (villous cytotrophoblasts): large syncytial structures
- viability of syncytial structures (trypan blue) [3]: viable
- structures observed (phase contrast microscopy) ([3]; oligonucleotide added after 72 hours of culture, OB-1 for 24 hours): Large syncytial structures
- N-cadherin mRNA levels [4]: did not effect
- composition of cellular structures formed (fusion) [5]: multinucleated syncytial structures
- cell viability and number [6]: did not have a significant effect
- cad-6 mRNA levels [7]: did not effect
- steroidogenic capacity (P4 concentrations in culture medium, RIA) ([8]; 0.5-5 M for 48 hours): did not have a significant effect
- cell number (Coulter cell counter) ([8]; for 48 hours): did not have a significant effect
- levels of the cad-11 RNA transcript [9]: did not effect
- cell viability and number (human decidual cells): did not have a significant effect

Compound: OB-4: sense oligonucleotide prepared as control: ACC TTG GTC AAG AAG CAC (SEQ ID NO:4) (sense ACCTTGGTCAAGAAGCAC; listed as DNA, chemistry not given here) [reference compound]
- results compared with the pair OB-1 (antisense) and OB-3 (sense) (cad-11): same results
